Data set [1] concerns red blood cells (whole blood). Put plainly: Hemolysis assay. Particulars: cyclodextrin 50 mg/ml, 1 hour, 37° C., absorbance at 540 nm. The format is cell-based, C57/BL6 mice. The protocol:
Whole blood from wilt-type C57/BL6 mice was used for assessment of hemolytic activity of cyclodextrins. The whole blood samples (300 μl) were mixed with each cyclodextrin at a concentration of 50 mg/ml and incubated for 1 hour at 37° C. After centrifugation at 3,000 g for 5 minutes, the absorbance at 540 nm of the supernatant was measured.

The next data set relates to Murine mesangial cells. As to the kind of experiment: Cholesterol efflux in kidney mesangial cells (flow cytometry). The class given is cell-based, C57BL/6 mice. The note with it: mesangial cells loaded with NBD-CC for 3 hours, cyclodextrin 5 mg/ml. The protocol: Murine mesangial cells derived from the kidney of wild-type C57BL/6 mice were maintained in DMEM, 10% fetal bovine serum (FBS), 100 U/ml penicillin G, 100 μg/ml streptomycin, and 2 mM L-glutamine. The cells were seeded at a density of 10^6 cells/well one day before treatment with NBD-CC. The cells were treated with 100 μg of NBD-CC per 10^6 cells for 3 hours and then washed thoroughly twice. Then, cyclodextrins were treated at a concentration of 5 mg/ml. For the assessment of cholesterol efflux and efflux-mediating proteins ABCA1 and ABCG1, flow cytometry was performed.

The subject of data set [2] is macrophage cell line (Raw264.7). Put plainly: Cell viability assay (CCK-8). The class given is cell-based. Particulars: cyclodextrin 20 mg/ml, 24 hours, 37° C. The protocol: The cells were seeded in a 96-well plate at a density of 5×10^4 cells and 24 hours later cyclodextrin were treated at a concentration of 20 mg/ml for 24 hours at 37° C. CCK-8 agent was added, 10 μl per well. After 3 hours, absorbance at 450 nm was measured to assess cellular viability.

The subject of a further data set is albuminuria. As to the kind of experiment: Albuminuria in diabetic kidney disease mouse model. The note with it: subcutaneous 2 g/kg twice a week for 4 weeks. The class given is in vivo, db/db mice. On the procedure:
To investigate the effects of cyclodextrins on albuminuria, 8-week-old male db/db mice were used to model diabetes type II, which is susceptible to albuminuria. In the experimental setup, Oligo-GCD (4103 Da), Oligo-HPGCD (3825 Da) and HPBCD-B were subcutaneously injected at a dose of 2 g/kg twice a week for 4 weeks. Control mice were given PBS only. After the treatment is completed, 24-hour urine samples were collected and the concentration of albumin in the urine was measured (FIG. 8A).

`CC(O)COC[C@H]1O[C@@H]2O[C@H]3[C@H](O)[C@@H](O)[C@@H](O[C@H]4[C@H](O)[C@@H](O)[C@@H](O[C@H]5[C@H](O)[C@@H](O)[C@@H](O[C@H]6[C@H](O)[C@@H](O)[C@@H](O[C@H]7[C@H](O)[C@@H](O)[C@@H](O[C@H]8[C@H](O)[C@@H](O)[C@@H](O[C@H]1[C@H](O)[C@H]2O)O[C@@H]8COCC(C)O)O[C@@H]7COCC(C)O)O[C@@H]6COCC(C)O)O[C@@H]5COCC(C)O)O[C@@H]4COCC(C)O)O[C@@H]3COCC(C)O` (single isomer, unassigned) [HPBCD-C, hydroxypropyl-beta-cyclodextrin]: the hemolytic activity result in data set [1] is “disrupt the plasma membrane and induce hemolysis”. The cellular cholesterol content in the data set with Murine mesangial cells was found to be 50.5%. Also, in data set [2], the cell viability entry is listed as “induce cell viability loss”.
Consider `CC(O)COC[C@H]1O[C@@H]2O[C@H]3[C@H](O)[C@@H](O)[C@@H](O[C@H]4[C@H](O)[C@@H](O)[C@@H](O[C@H]5[C@H](O)[C@@H](O)[C@@H](O[C@H]6[C@H](O)[C@@H](O)[C@@H](O[C@H]7[C@H](O)[C@@H](O)[C@@H](O[C@H]8[C@H](O)[C@@H](O)[C@@H](O[C@H]1[C@H](O)[C@H]2O)O[C@@H]8COCC(C)O)O[C@@H]7COCC(C)O)O[C@@H]6COCC(C)O)O[C@@H]5COCC(C)O)O[C@@H]4COCC(C)O)O[C@@H]3COCC(C)O` (single isomer, unassigned) [HPBCD-A, hydroxypropyl-beta-cyclodextrin], for which the hemolytic activity result in data set [1] was “disrupt the plasma membrane and induce hemolysis”. In the data set with Murine mesangial cells, this compound had a cellular cholesterol content of 54.1%. Further, the cell viability result in data set [2] is listed as “induce cell viability loss”.
For `CC(O)COC[C@H]1O[C@@H]2O[C@H]3[C@H](O)[C@@H](O)[C@@H](O[C@H]4[C@H](O)[C@@H](O)[C@@H](O[C@H]5[C@H](O)[C@@H](O)[C@@H](O[C@H]6[C@H](O)[C@@H](O)[C@@H](O[C@H]7[C@H](O)[C@@H](O)[C@@H](O[C@H]8[C@H](O)[C@@H](O)[C@@H](O[C@H]1[C@H](O)[C@H]2O)O[C@@H]8COCC(C)O)O[C@@H]7COCC(C)O)O[C@@H]6COCC(C)O)O[C@@H]5COCC(C)O)O[C@@H]4COCC(C)O)O[C@@H]3COCC(C)O` (single isomer, unassigned) [HPBCD-B, hydroxypropyl-beta-cyclodextrin], the hemolytic activity entry in data set [1] was “disrupt the plasma membrane and induce hemolysis”. The compound also returned a cellular cholesterol content in the data set on Murine mesangial cells of 48.2%. Moreover, in the data set on albuminuria, the “ACR reduction compared to control” value amounted to 22.6%. Also, the “albumin/creatinine ratio (ACR)” value in the data set on albuminuria (urine at end of week 4) is 190.9 µg/mg. Moreover, the cell viability entry in data set [2] was “induce cell viability loss”.

Values taken from patent publication US11931376B1, “Methods for the treatment of chronic kidney disease” (RENATUS INC., priority 2022, dated 2024).
